Experiments:
[1] = test system: MDA-MB-231 cells; experiment: label-free SERS mapping with PLS-DA of living cells treated with PTX dosages; format: cell-based, human; conditions: 1.5 nM PTX, MDA-MB-231, PLS-DA after ERS calibration
[2] = test system: HCC-1806; conditions: HCC-1806 triple-negative breast cancer cells; read-out: half-maximal inhibition concentration (IC50); cited from earlier work
[3] = test system: HCC-1806 cells; experiment: label-free SERS mapping with PLS-DA of living cells treated with PTX dosages; format: cell-based, human; conditions: 1.5 nM, 5 nM and 15 nM PTX, HCC-1806, after ERS calibration

In the case of `CC(=O)O[C@H]1C(=O)[C@@]2(C)[C@H]([C@H](OC(=O)c3ccccc3)[C@]3(O)C[C@H](OC(=O)[C@H](O)[C@@H](NC(=O)c4ccccc4)c4ccccc4)C(C)=C1C3(C)C)[C@]1(OC(C)=O)CO[C@@H]1C[C@@H]2O` [PTX, paclitaxel], the “changes of SERS-measured molecular profiles versus control group (0 nM)” value [1] is given as “not enough to elicit significant changes”, the IC50 [2] is given as 1.5 nM and the “separation of PLS-DA scatters of control group (0 nM) from PTX treated groups” value [3] is given as “completely separate”.

From patent US20240142382A1, “METHODS AND COMPOSITIONS FOR CALIBRATED LABEL-FREE SURFACE-ENHANCED RAMAN SPECTROSCOPY” (Virginia Tech Intellectual Properties, Inc., priority 2021, published 2024)
